Each structure is given as a SMILES string.

Test [1] concerns stressed and non-stressed mice. As to conditions: cited from earlier work.
Another test concerns stressed subjects. As to the kind of experiment: gastrointestinal motility in stressed subjects, oral administration. In kind it is in vivo.
The subject of a further test is rats. The test is described as follows: visceral hyperalgesia in rats, oral administration. The class given is in vivo.

On to `CN(C)C(=O)C(CCN1CCC(O)(c2ccc(Cl)cc2)CC1)(c1ccccc1)c1ccccc1` [loperamide], for which, in test [1], the “dose range of the effect” value was “narrow dose range”; the “gastrointestinal transit and fecal output” value is “completely prevented fecal output”.

On to `COc1ccc(CN(C(=O)C(N)Cc2c(C)cc(C(N)=O)cc2C)C(C)c2nc(-c3ccccc3)c[nH]2)cc1C(=O)O` (stereo not shown) [active ingredient], for which, in the test with stressed subjects, the “gastrointestinal (GI) motility” value is “efficacious in normalizing gastrointestinal (GI) motility”. Besides, the anti-visceral hyperalgesic effects result with rats is recorded as “providing anti-visceral hyperalgesic effects”.

The values are drawn from patent publication US11007179B2, “Opioid receptor modulator dosage formulations” (Allergan Holdings Unlimited Company, priority 2013, dated 2021).
